Patent US9073916B2, “Prodrug forms of kinase inhibitors and their use in therapy” (AUCKLAND UNISERVICES LIMITED, priority 2009, dated 2015)
Where two headings read alike, the source gives them in different places.

Experiments:
[1] = tested on: H1975 xenografts; assay: In vivo efficacy in H1975 xenografts; parameters: species or system mice; details: H1975 xenografts, q3dx4 at respective MTD, IP
Method: Specific pathogen-free homozygous female NIH-III nude mice (Charles River Laboratories, Wilmington, Mass.) were inoculated subcutaneously with a single cell suspension of H1975 cells (5×10^6 cells/100 μL; right flank). When H1975 tumour xenografts were established (typically 8-12 days) mice were randomized to treatment groups. All compounds were prepared in lactate buffer (pH4). Mice were dosed by intraperitoneal injection (0.01-0.03 ml/g) using the stated schedules and dose levels. For growth delay experiments mice were randomized to treatment and tumor volume [π(length×width^2)/6] and body weight were measured daily following treatment. […] Differences in RTV^4 were tested for statistical difference by Mann Whitney U test using SigmaStat v3.5.

[2] = Chemical stability by HPLC; details: HPLC after 24 h at 37° C.
[3] = molecular target: erbB1 (Homo sapiens, UniProt P00533); assay: Inhibition of erbB1 autophosphorylation in EGF-stimulated intact A431 cells (Western blot)
[4] = tested on: A431 cells; assay: Cellular growth inhibition (sulforhodamine B); details: for IC50: Homo sapiens
Method: (§3) Human A431, BT474, SKBR3, SKOV3, SW620, H1975 and HT29 carcinoma cells in log phase exponential growth in alpha minimal essential media (αMEM) containing 5% fetal bovine serum (FBS), were harvested by trypsinisation (1× trypsin/EDTA, Gibco Brl), counted, and seeded into 96 well plates (Nunc) at cell densities ranging from 800-1500 cells/well. Half of the cell samples were seeded into plates that were pre-equilibrated and held in an anoxic environment (90% N2, 5% H2, 5% CO2, 37° Q Anaerobic chamber, Coy Laboratory Products). […] At the end of this period the anoxic plates were recovered from the anaerobic camber and held under normoxia in a standard CO2 incubator (37° C.) for 20 hours. All plates were washed free of compound and cells were allowed to proliferate for a further 4 days in αMEM containing 5% FBS+antibiotics. Cells were fixed in trichloroacteic acid (30 min), washed and stained with sulforhodamine B (SRB, 60 min) prior to washing in acidified water. SRB was solubilised and absorption read at 450 nm to calculate cell densities. Inhibition of proliferation was calculated relative to untreated control wells.
(§4) Human A431, H1975 and SKOV3 carcinoma cells in log phase exponential growth in alpha minimal essential media (αMEM) containing 5% fetal bovine serum (FBS), were harvested by trypsinisation (1× trypsin/EDTA, Gibco Brl), counted, and seeded into 96 well plates (Nunc) at cell densities ranging from 800-1500 cells/well. Half of the cell samples were seeded into plates that were pre-equilibrated and held in an anoxic environment (90% N2, 5% H2, 5% CO2, 37° C.; Anaerobic chamber, Coy Laboratory Products). […] At the end of this period the anoxic plates were recovered from the anaerobic camber and held under normoxia in a standard CO2 incubator (37° C.) for 20 hours. All plates were washed free of compound and cells were allowed to proliferate for a further 4 days in αMEM containing 5% FBS+antibiotics. Cells were fixed in trichloroacteic acid (30 min), washed and stained with sulforhodamine B (SRB, 60 min) prior to washing in acidified water. SRB was solubilised and absorption read at 450 nm to calculate cell densities. Inhibition of proliferation was calculated relative to untreated control wells.

[5] = tested on: H1975 cells; assay: Cellular growth inhibition (sulforhodamine B); assay type: cell-based, Human; details: for IC50: Homo sapiens, NCI-H1975
Method: as §3, §4
They were then washed free of drug and incubated for a further 4 days, before being stained for cell survival with sulforhodamine B.

[6] = physchem
[7] = tested on: SKOV3 cells; assay: Cellular growth inhibition (sulforhodamine B); assay type: cell-based, Human; details: Table 9; for IC50: Homo sapiens, SK-OV-3
Method: as §4

[8] = tested on: SW620 cells; assay: Cellular growth inhibition (sulforhodamine B); assay type: cell-based, Human; details: Table 3; for IC50: Homo sapiens, SW-620
[9] = tested on: SKBR3 cells; assay: Cellular growth inhibition (sulforhodamine B); assay type: cell-based, Human; details: Table 3; for IC50: Homo sapiens, SK-BR-3
[10] = tested on: HT29 cells; assay: Cellular growth inhibition (sulforhodamine B); assay type: cell-based, Human; details: Table 7; for IC50: Homo sapiens, HT-29
Method: as §3

[11] = Pulse radiolysis (E(1) and fragmentation rate); assay type: physicochemical; details: for E (1)/V (one-electron reduction potential): determined against methylviologen; for kfrag. (fragmentation rate constant upon 1-electron reduction): benzyl-type radical formation
Method: (§1) Pulse radiolysis was used to monitor the 1-electron reduction and stability of the compounds in real time. A linear accelerator delivering short pulses of high energy electrons (2-3 Gy in 200 ns of 4 MeV) equipped with a fast spectophotometric detection system was used. (Anderson et al, J. Phys. Chem. A, 101, 9704-9709, 1997). […] The rate of fragmentation was determined by analysing kinetic transients at wavelengths corresponding to the formation of the benzyl-type radical of the trigger moiety. (Bays et al, J. Am. Chem. Soc., 105, 320-324, 1983; Anderson et al, J. Phys. Chem. A, 101, 9704-9709, 1997).
The pulse radiolysis method, for example, measures the equilibrium constant between the radical anions of the prodrugs, formed upon their 1-electron reduction, and reference standards such as viologen and quinone compounds, from which data the E(1) values of the compounds can be calculated. (Meisel and Czapski. J. Phys. Chem., 1975, 79, 1503-1509.) The E(1) values of prodrugs 17-22, 140-145 were measured by the pulse radiolysis method and determined to range between −0.493V and −0.388V (Table 4).
The rate constants for fragmentation, kfrag, of the 1-electron reduced prodrugs can be measured using pulse radiolysis to observe the time-resolved formation of the absorption spectrum of the benzyl-type radical produced upon fragmentation of the radical anion. (Anderson et al, J. Phys. Chem. A, 1997, 101, 9704-9709.) The kfrag values of prodrugs 19, 20, 140, 141 and 143-145 were measured by pulse radiolysis and are presented in Table 4.
as §1, with “one-electron” for “1-electron”, “prodrug 42” for “the compounds”, “used.” for “used. (Anderson et al, J. Phys. Chem. A, 101, 9704-9709, 1997).”, “1997.)” for “1997).”

[12] = Steady state radiolytic reduction by the CO2.− radical with HPLC-MS; assay type: physicochemical; details: for Detection of MNA (methyl nitroaromatic) / release of effector following 1-electron reduction: HPLC-MS; for % Loss of prodrug: HPLC-MS at 0.95 reducing equivalents; for release of effector following 1-electron reduction: steady state radiolysis
[13] = molecular target: erbB2 (Homo sapiens, UniProt P04626); assay: Isolated enzyme inhibition (Invitrogen Z′-LYTE kinase assay); assay type: biochemical; details: 10 μM ATP, duplicate
Method: (§2) The compounds of Table 1 were tested for their ability to inhibit erbB1, erbB1^T790M, erbB2 and erbB4 in an isolated enzyme assay. This assay utilises synthetic FRET-capable peptide substrates. Phosphorylation of these substrates protects them from cleavage by a development reagent, leaving their FRET-capabilities intact. […] As a further consideration, for compounds capable of irreversible inhibition of an enzyme, the IC50 reflects both reversible and irreversible binding to the enzyme.

[14] = molecular target: erbB4 (Homo sapiens, UniProt Q15303); assay: as above; assay type: biochemical; details: 10 μM ATP, duplicate
Method: as §2

[15] = A-431, 4 h, read-out: Cellular Growth Inhibition IC50 A431 Anoxic
[16] = A-431, 24 h, read-out: Cellular Growth Inhibition IC50 A431 Oxic
[17] = Table 9, 24 hour exposure oxic, read-out: Cellular Growth Inhibition IC50 H1975 Oxic
[18] = Table 9, first 4 hours anoxic, read-out: Cellular Growth Inhibition IC50 H1975 Anoxic
[19] = 24 hour exposure oxic, read-out: Cellular Growth Inhibition IC50 SKOV3 Oxic
[20] = first 4 hours anoxic, read-out: Cellular Growth Inhibition IC50 SKOV3 Anoxic
[21] = 24 hour exposure entirely oxic, read-out: Cellular Growth Inhibition IC50 SW620 Oxic
[22] = first 4 hours anoxic, read-out: Cellular Growth Inhibition IC50 SW620 Anoxic
[23] = A-431, read-out: Cellular Growth Inhibition IC50 A431 Anoxic
[24] = 24 hour exposure entirely oxic, read-out: Cellular Growth Inhibition IC50 SKBR3 Oxic
[25] = first 4 hours anoxic, read-out: Cellular Growth Inhibition IC50 SKBR3 Anoxic
[26] = 24 hour exposure oxic, read-out: Cellular Growth Inhibition IC50 HT29 Oxic
[27] = initial 4 hours anoxic, read-out: Cellular Growth Inhibition IC50 HT29 Anoxic
[28] = Table 7, 24 hour exposure oxic, read-out: Cellular Growth Inhibition IC50 H1975 Oxic
[29] = Table 7, initial 4 hours anoxic, read-out: Cellular Growth Inhibition IC50 H1975 Anoxic

erbB1, sequence (P00533 25-1210): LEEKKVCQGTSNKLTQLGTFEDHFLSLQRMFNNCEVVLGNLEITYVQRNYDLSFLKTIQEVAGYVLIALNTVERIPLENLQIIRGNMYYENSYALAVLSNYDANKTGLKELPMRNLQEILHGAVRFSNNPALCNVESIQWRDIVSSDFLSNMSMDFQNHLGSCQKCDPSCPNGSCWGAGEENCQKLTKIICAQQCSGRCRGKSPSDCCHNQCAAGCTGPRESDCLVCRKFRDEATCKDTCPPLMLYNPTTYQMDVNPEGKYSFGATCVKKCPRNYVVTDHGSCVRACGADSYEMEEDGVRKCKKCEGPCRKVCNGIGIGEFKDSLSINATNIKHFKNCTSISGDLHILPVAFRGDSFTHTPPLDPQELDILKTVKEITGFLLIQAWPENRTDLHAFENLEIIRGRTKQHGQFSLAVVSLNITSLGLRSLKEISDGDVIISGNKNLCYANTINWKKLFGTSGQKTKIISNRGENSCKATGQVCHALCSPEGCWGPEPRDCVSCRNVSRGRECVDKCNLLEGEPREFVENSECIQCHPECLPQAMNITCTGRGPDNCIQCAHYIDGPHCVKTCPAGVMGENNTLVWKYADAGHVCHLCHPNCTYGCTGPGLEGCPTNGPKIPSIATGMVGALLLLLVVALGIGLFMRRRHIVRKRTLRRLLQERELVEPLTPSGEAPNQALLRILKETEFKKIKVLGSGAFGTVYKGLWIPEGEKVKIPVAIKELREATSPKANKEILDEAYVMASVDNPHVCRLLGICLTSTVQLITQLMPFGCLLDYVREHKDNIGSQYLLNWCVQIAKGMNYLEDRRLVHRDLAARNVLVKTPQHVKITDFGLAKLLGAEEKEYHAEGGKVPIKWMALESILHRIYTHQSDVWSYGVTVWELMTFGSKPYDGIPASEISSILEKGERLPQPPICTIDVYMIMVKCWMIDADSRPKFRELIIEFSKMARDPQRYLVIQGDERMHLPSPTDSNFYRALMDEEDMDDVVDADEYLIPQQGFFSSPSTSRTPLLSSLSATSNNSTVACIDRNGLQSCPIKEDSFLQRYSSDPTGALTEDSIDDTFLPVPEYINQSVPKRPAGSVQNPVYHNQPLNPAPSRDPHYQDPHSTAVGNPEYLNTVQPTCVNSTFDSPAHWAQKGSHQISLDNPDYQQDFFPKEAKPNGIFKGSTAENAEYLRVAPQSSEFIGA
erbB4, sequence (Q15303 26-1308): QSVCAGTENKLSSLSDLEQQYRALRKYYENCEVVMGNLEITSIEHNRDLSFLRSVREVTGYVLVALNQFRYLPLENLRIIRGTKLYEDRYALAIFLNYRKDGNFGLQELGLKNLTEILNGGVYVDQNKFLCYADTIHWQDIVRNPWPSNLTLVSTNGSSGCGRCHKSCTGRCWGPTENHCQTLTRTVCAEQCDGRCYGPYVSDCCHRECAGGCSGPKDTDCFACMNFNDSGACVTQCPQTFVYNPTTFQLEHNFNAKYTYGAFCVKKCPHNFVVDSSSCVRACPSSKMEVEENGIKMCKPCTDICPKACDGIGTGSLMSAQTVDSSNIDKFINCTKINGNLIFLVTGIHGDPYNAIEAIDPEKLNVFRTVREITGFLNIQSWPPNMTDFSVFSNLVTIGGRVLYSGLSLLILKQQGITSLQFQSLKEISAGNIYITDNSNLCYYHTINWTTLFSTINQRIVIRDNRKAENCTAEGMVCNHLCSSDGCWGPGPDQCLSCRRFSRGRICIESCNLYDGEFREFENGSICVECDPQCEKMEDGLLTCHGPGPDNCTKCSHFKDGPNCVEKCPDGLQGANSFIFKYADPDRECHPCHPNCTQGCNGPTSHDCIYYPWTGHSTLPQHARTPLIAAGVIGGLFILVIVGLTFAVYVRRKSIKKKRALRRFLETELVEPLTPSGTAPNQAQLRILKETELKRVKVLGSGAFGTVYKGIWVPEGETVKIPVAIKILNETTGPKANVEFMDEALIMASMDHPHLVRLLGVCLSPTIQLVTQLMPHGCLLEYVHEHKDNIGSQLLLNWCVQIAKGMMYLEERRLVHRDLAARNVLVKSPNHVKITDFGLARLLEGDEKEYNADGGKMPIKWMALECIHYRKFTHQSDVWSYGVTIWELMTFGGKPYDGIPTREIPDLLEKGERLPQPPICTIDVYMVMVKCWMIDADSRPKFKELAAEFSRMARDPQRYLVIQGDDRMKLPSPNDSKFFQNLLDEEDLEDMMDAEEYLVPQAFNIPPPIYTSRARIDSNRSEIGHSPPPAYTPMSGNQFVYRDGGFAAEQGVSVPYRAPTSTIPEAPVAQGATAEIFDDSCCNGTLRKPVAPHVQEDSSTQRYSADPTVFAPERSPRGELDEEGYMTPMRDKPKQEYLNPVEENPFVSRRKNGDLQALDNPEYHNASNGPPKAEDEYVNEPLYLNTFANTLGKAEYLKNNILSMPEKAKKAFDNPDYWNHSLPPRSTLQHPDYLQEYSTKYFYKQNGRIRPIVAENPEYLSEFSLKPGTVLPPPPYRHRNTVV
erbB2, sequence (P04626 23-1255): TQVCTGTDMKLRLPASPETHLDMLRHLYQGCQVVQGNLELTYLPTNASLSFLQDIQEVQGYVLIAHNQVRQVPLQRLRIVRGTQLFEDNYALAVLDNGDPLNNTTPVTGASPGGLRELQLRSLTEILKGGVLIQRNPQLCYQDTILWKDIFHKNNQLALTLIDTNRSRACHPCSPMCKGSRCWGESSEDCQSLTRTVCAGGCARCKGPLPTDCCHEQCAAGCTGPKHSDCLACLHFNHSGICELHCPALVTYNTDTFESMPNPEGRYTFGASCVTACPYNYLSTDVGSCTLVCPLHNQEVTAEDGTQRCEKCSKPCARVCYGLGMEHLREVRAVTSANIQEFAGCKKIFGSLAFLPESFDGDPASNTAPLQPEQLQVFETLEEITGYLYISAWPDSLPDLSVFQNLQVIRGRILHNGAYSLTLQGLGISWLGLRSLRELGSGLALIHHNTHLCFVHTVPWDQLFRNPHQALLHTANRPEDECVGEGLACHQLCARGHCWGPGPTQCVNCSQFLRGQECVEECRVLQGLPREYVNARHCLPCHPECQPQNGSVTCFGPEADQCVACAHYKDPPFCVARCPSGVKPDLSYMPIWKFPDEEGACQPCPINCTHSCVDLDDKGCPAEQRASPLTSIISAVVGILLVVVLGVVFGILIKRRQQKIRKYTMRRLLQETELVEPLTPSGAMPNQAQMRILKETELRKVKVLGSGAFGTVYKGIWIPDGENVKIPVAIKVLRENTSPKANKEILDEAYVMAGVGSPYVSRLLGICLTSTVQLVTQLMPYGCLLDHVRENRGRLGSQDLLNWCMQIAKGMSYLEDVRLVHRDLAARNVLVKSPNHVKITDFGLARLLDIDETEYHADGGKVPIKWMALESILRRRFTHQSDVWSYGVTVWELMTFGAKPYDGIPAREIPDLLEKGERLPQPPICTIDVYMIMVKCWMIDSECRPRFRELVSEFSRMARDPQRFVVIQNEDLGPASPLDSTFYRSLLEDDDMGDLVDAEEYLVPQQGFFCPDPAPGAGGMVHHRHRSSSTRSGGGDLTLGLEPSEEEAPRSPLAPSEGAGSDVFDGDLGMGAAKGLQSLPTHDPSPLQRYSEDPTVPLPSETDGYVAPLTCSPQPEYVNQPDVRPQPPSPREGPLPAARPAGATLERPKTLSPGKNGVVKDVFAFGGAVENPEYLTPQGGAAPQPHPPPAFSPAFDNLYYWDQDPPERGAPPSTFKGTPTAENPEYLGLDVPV

Cn1cnc([N+](=O)[O-])c1C[N+](C)(C)C/C=C/C(=O)Nc1cc2c(Nc3ccc(F)c(C(F)(F)F)c3)ncnc2cn1 [Compound 50, (2E)-4-({4-[4-fluoro-3-(trifluoromethyl)anilino]pyrido[3,4-d]pyrimidin-6-yl}amino)-N,N-dimethyl-N-[(1-methyl-4-nitro-1H-imidazol-5-yl)methyl]-4-oxo-2-buten-1-ammonium bromide]
tumour growth inhibition (TGI) [1]: 114%
Stability PBS (percentage parent remaining) [2]: 88%
Stability Water (percentage parent remaining) [2]: 99%
Stability α-MEM + FCS (5%) (percentage parent remaining) [2]: 64%
IC50 [3]: 969 nM
Deact. erbB1 (fold reduction in cellular inhibition relative to the parent kinase inhibitor) ([3]; Table 8, A431 cells): 121 fold
IC50 [4, 15]: 250 nM
IC50 [4, 16]: 15300 nM
A431 Deact. ([4]; Table 9): 64 fold
A431 HCR ([4]; Table 9): 65.8 fold
IC50 [5, 17]: 120 µM
IC50 [5, 18]: 3.78 µM
H1975 Deact. ([5]; Table 9): 70 fold
H1975 HCR ([5]; Table 9): 43.5 fold
solubility ([6]; aqueous buffer): 72 µM
solubility ([6]; water): > 1300 µM
IC50 [7, 19]: 125000 nM
IC50 [7, 20]: 4780 nM
SKOV3 Deact. [7]: 126 fold
SKOV3 HCR [7]: 28.7 fold

C#Cc1cccc(Nc2ncnc3cnc(NC(=O)/C=C/CN(C)C)cc23)c1 [Compound 171, (2E)-4-(dimethylamino)-N-[4-(3-ethynylanilino)pyrido[3,4-d]pyrimidin-6-yl]-2-butenamide]
IC50 [3]: 8 nM
IC50 [4, 15]: 17 nM
IC50 [4, 16]: 27 nM
A431 HCR ([4]; Table 9): 1.7 fold
melting point: 163 to 166 °C
IC50 [5, 17]: 1.15 µM
IC50 [5, 18]: 1.12 µM
H1975 HCR ([5]; Table 9): 1.1 fold
IC50 [7, 19]: 550 nM
IC50 [7, 20]: 740 nM
SKOV3 HCR [7]: 0.8 fold

COc1cc2ncnc(Nc3ccc(F)c(Cl)c3)c2cc1NC(=O)/C=C/CN(C)C [Compound 14, (2E)-N-[4-(3-chloro-4-fluoroanilino)-7-methoxy-6-quinazolinyl]-4-(dimethylamino)-2-butenamide]
IC50 [8, 21]: 2.02 µM
IC50 [8, 22]: 2.46 µM
SW620 HCR [8]: 0.8 fold
IC50 [4, 16]: 15 nM
IC50 [4, 23]: 9 nM
A431 HCR (Hypoxic Cytotoxicity Ratio) ([4]; Table 3): 1.7 fold
melting point: 179 to 181 °C
IC50 [9, 24]: 28 nM
IC50 [9, 25]: 27 nM
SKBR3 HCR [9]: 1.1 fold

Cn1cnc([N+](=O)[O-])c1C[n+]1ccc(Nc2ncc3cc(-c4c(Cl)cccc4Cl)c(=O)n(C)c3n2)cc1.[Br-] [Compound 142, 4-{[6-(2,6-dichlorophenyl)-8-methyl-7-oxo-7,8-dihydropyrido[2,3-d]pyrimidin-2-yl]amino}-1-[(1-methyl-4-nitro-1H-imidazol-5-yl)methyl]pyridinium bromide]
IC50 [10, 26]: 154 µM
IC50 [10, 27]: 119 µM
HT29 HCR [10]: 1 fold
E (1)/V (one-electron reduction potential) [11]: −0.471 V
IC50 [4, 15]: > 100000 nM
IC50 [4, 16]: 555000 nM
A431 HCR ([4]; Table 7): <6 fold
melting point: 252 °C (dec.)
IC50 [5, 28]: 216 µM
IC50 [5, 29]: > 100 µM
H1975 HCR ([5]; Table 7): <3 fold
Detection of MNA (methyl nitroaromatic) [12]: No
% Loss of prodrug [12]: 8%
release of effector following 1-electron reduction [12]: did not release their respective effector compounds

CN(C)CCCC(=O)Nc1ccc2ncnc(Nc3cccc(Br)c3)c2c1 [Compound 16, N-[4-(3-bromoanilino)-6-quinazolinyl]-4-(dimethylamino)butanamide]
IC50 [13]: 74 nM
IC50 [14]: 113 nM
IC50 [8, 21]: 18.6 µM
IC50 [8, 22]: 19.6 µM
SW620 HCR [8]: 0.9 fold
IC50 [4, 16]: 1260 nM
IC50 [4, 23]: 1300 nM
melting point: 180 to 182 °C
IC50 [9, 24]: 3190 nM
IC50 [9, 25]: 5510 nM
SKBR3 HCR [9]: 0.6 fold

Cn1cnc([N+](=O)[O-])c1C[N+]1(C/C=C/C(=O)Nc2ccc3ncnc(Nc4cccc(Br)c4)c3c2)CCCCC1.[Br-] [Compound 23, 1-((2E)-4-{[4-(3-bromoanilino)-6-quinazolinyl]amino}-4-oxo-2-butenyl)-1-[(1-methyl-4-nitro-1H-imidazol-5-yl)methyl]piperidinium bromide]
IC50 [8, 21]: 101 µM
IC50 [8, 22]: 13.8 µM
SW620 Deact. [8]: 27 fold
SW620 HCR [8]: 7.3 fold
kfrag. (fragmentation rate constant upon 1-electron reduction) [11]: 420 ± 60 s⁻¹
E (1)/V (one-electron reduction potential) [11]: −0.427 V
IC50 [3]: 1200 nM
Deact. (fold reduction in cellular erbB1 inhibition relative to the parent kinase inhibitor) ([3]; Table 2, A431 cells): 27 fold
IC50 [4, 16]: 670 nM
IC50 [4, 23]: 25 nM
A431 Deact. (fold reduction in oxic growth inhibition relative to parent kinase inhibitor) ([4]; Table 3): 65 fold
A431 HCR (Hypoxic Cytotoxicity Ratio) ([4]; Table 3): 26.9 fold
melting point: 188 °C (dec.)
IC50 [9, 24]: 2470 nM
IC50 [9, 25]: 68 nM
SKBR3 Deact. [9]: 56 fold
SKBR3 HCR [9]: 36.1 fold

Cn1cnc([N+](=O)[O-])c1C[N+]1(CCOc2ccc(Nc3ncc4cc(-c5c(Cl)cccc5Cl)c(=O)n(C)c4n3)cc2)CCCCC1.[Br-] [Compound 143, 1-[2-(4-{[6-(2,6-dichlorophenyl)-8-methyl-7-oxo-7,8-dihydropyrido[2,3-d]pyrimidin-2-yl]amino}phenoxy)ethyl]-1-[(1-methyl-4-nitro-1H-imidazol-5-yl)methyl]piperidinium bromide]
IC50 [10, 26]: 7.8 µM
IC50 [10, 27]: 1.5 µM
HT29 HCR [10]: 5 fold
kfrag. (fragmentation rate constant upon 1-electron reduction) [11]: 170 ± 20 s⁻¹
E (1)/V (one-electron reduction potential) [11]: −0.465 V
IC50 [4, 15]: 1000 nM
IC50 [4, 16]: 42800 nM
A431 HCR ([4]; Table 7): 43 fold
melting point: 176 to 178 °C
IC50 [5, 28]: 17.9 µM
IC50 [5, 29]: 2 µM
H1975 HCR ([5]; Table 7): 9 fold
Detection of MNA (methyl nitroaromatic) [12]: Yes
% Loss of prodrug [12]: 69%
release of effector following 1-electron reduction [12]: released their respective effector compounds
